From ChEMBL document CHEMBL1201862, “PubChem BioAssay data set” (2004)
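Dose response: 5 concentrations. Exposure: 48 h. Format: 96-well plates. Endpoint: linear interpolation; highest concentration if not reached. GI50 is the concentration that inhibits growth by half.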 Active and inactive are the calls of the source. No stated cut-off is given here; in the data, active = GI50 up to about 1.1 µM and inactive = higher.

Columns and labels:
Assay in all cases: NCI-60 cell line screen, 48 h
[1] = tested on: 786-0
[2] = tested on: ACHN
[3] = tested on: CAKI-1
[4] = tested on: DU-145
[5] = tested on: EKVX
[6] = tested on: HCC 2998
[7] = tested on: HCT-15
[8] = tested on: HOP-62
[9] = tested on: HT-29
[10] = tested on: LOX IMVI
[11] = tested on: MCF7
[12] = tested on: MDA-MB-435
[13] = tested on: MOLT-4
[14] = tested on: NCI-H460
[15] = tested on: NCI/ADR-RES
[16] = tested on: OVCAR-3
[17] = tested on: OVCAR-5
[18] = tested on: OVCAR-8
[19] = tested on: PC-3
[20] = tested on: SF-295
[21] = tested on: SK-MEL-28
[22] = tested on: SK-MEL-5
[23] = tested on: SN12C
[24] = tested on: SR
[25] = tested on: SW-620
[26] = tested on: T47D
[27] = tested on: TK-10
[28] = tested on: UACC-257
[29] = tested on: UACC-62
[30] = tested on: UO-31
[31] = tested on: A498
[32] = tested on: A549
[33] = tested on: BT-549
[34] = tested on: CCRF-CEM
[35] = tested on: COLO 205
[36] = tested on: HCT-116
[37] = tested on: HL-60
[38] = tested on: HOP-92
[39] = tested on: Hs-578T
[40] = tested on: IGROV-1
[41] = tested on: K562
[42] = tested on: KM12
[43] = tested on: M14
[44] = tested on: MDA-MB-231
[45] = tested on: MDA-N
[46] = tested on: Malme-3M
[47] = tested on: NCI-H226
[48] = tested on: NCI-H23
[49] = tested on: NCI-H522
[50] = tested on: OVCAR-4
[51] = tested on: RPMI-8226
[52] = tested on: RXF 393
[53] = tested on: SF-268
[54] = tested on: SF-539
[55] = tested on: SK-MEL-2
[56] = tested on: SK-OV-3
[57] = tested on: SNB-19
[58] = tested on: SNB-75
[59] = tested on: U-251

CCn1ncc(N=O)c1N
GI50 [1]: > 100000 nM (inactive)
GI50 [2]: > 100000 nM (inactive)
GI50 [3]: > 100000 nM (inactive)
GI50 [4]: > 100000 nM (inactive)
GI50 [5]: > 100000 nM (inactive)
GI50 [6]: 56200 nM (inactive)
GI50 [7]: > 100000 nM
GI50 [8]: > 100000 nM (inactive)
GI50 [9]: > 100000 nM (inactive)
GI50 [10]: > 100000 nM (inactive)
GI50 [11]: > 100000 nM (inactive)
GI50 [12]: > 100000 nM (inactive)
GI50 [13]: > 100000 nM (inactive)
GI50 [14]: > 100000 nM (inactive)
GI50 [15]: > 100000 nM (inactive)
GI50 [16]: > 100000 nM (inactive)
GI50 [17]: > 100000 nM (inactive)
GI50 [18]: > 100000 nM (inactive)
GI50 [19]: > 100000 nM (inactive)
GI50 [20]: > 100000 nM (inactive)
GI50 [21]: > 100000 nM (inactive)
GI50 [22]: > 100000 nM (inactive)
GI50 [23]: > 100000 nM (inactive)
GI50 [24]: > 100000 nM (inactive)
GI50 [25]: > 100000 nM (inactive)
GI50 [26]: > 100000 nM (inactive)
GI50 [27]: > 100000 nM (inactive)
GI50 [28]: > 100000 nM (inactive)
GI50 [29]: > 100000 nM (inactive)
GI50 [30]: > 100000 nM (inactive)

Nc1ccc2c(c1)N(C(=O)CCCC(=O)N1CC(CCl)c3ccc(N)cc31)CC2CCl (stereo not drawn)
GI50 [1]: 169 nM (active)
GI50 [31]: 1070 nM (active)
GI50 [32]: 472 nM (active)
GI50 [2]: 112 nM (active)
GI50 [33]: 719 nM (active)
GI50 [3]: 141 nM (active)
GI50 [34]: 185 nM (active)
GI50 [35]: 735 nM (active)
GI50 [4]: 121 nM (active)
GI50 [5]: 1510 nM (inactive)
GI50 [6]: 1450 nM (inactive)
GI50 [36]: 394 nM (active)
GI50 [7]: 1240 nM
GI50 [37]: 19.9 nM (active)
GI50 [8]: 262 nM (active)
GI50 [38]: 1970 nM (inactive)
GI50 [9]: 946 nM (active)
GI50 [39]: 918 nM (active)
GI50 [40]: 411 nM (active)
GI50 [41]: 873 nM (active)
GI50 [42]: 948 nM (active)
GI50 [10]: 267 nM (active)
GI50 [43]: 604 nM (active)
GI50 [11]: 333 nM (active)
GI50 [44]: 1430 nM (inactive)
GI50 [12]: 953 nM (active)
GI50 [45]: 1060 nM (active)
GI50 [13]: 64.6 nM (active)
GI50 [46]: 88.3 nM (active)
GI50 [47]: 22.6 nM (active)
GI50 [48]: 218 nM (active)
GI50 [14]: 716 nM (active)
GI50 [49]: 71.3 nM (active)
GI50 [15]: 1150 nM (inactive)
GI50 [16]: 971 nM (active)
GI50 [50]: 867 nM (active)
GI50 [17]: 875 nM (active)
GI50 [18]: 466 nM (active)
GI50 [19]: 1080 nM (active)
GI50 [51]: 260 nM (active)
GI50 [52]: 195 nM (active)
GI50 [53]: 115 nM (active)
GI50 [20]: 400 nM (active)
GI50 [54]: 461 nM (active)
GI50 [21]: 1230 nM (inactive)
GI50 [55]: 587 nM (active)
GI50 [22]: 236 nM (active)
GI50 [56]: 2340 nM (inactive)
GI50 [23]: 469 nM (active)
GI50 [57]: 1210 nM (inactive)
GI50 [58]: 535 nM (active)
GI50 [24]: 17 nM (active)
GI50 [25]: 977 nM (active)
GI50 [27]: 1530 nM (inactive)
GI50 [59]: 513 nM (active)
GI50 [28]: 1260 nM (inactive)
GI50 [29]: 354 nM (active)
GI50 [30]: 561 nM (active)
